Counter-ions that a name gives are not always drawn.
Assays:
Assay type in all cases: biochemical
[1] = target: T1, Human PI3K alpha (Homo sapiens, UniProt P42336); experiment: Human PI3K alpha enzyme assay (HTRF); conditions: at a 1.1 μM concentration; read-out: PI3Kα Percent Inhibition
T1 construct: His (N); host or cells: SF9 insect cells (baculovirus)

[2] = target: T2, Human PI3K delta (Homo sapiens, UniProt O00329); experiment: Human PI3K delta enzyme assay (HTRF); conditions: at a 1.0 μM concentration; read-out: PI3Kδ Percent Inhibition
T2 construct: His (N); host or cells: SF9 insect cells (baculovirus)
Method in brief: (§1)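 Compounds were mixed with 25 uM ATP, then with 3.5 uM di-C8 PI(4,5)P2 and His-tagged PI3K isoform (β 5.25 nM, δ 0.75 nM, γ 5 nM) at pH 7.00. After 30 min at room temperature, EDTA stopped the reaction and PIP3 was measured by HTRF over 1 h.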

[3] = target: T3, Human PI3K beta (Homo sapiens, UniProt P42338); experiment: Human PI3K beta enzyme assay (HTRF); conditions: at a 1.1 μM concentration; read-out: PI3β Percent Inhibition
T3 construct: His (N); host or cells: SF9 insect cells (baculovirus)
Method in brief: as §1

[4] = target: T4, Human PI3K gamma (Homo sapiens, UniProt P48736); experiment: Human PI3K gamma enzyme assay (HTRF); conditions: at a 1.0 μM concentration; read-out: PI3Kγ Percent Inhibition
T4 construct: His (N); host or cells: SF9 insect cells (baculovirus)
Method in brief: as §1

[5] = target: T5, Human VPS34 (Homo sapiens, UniProt Q8NEB9); experiment: Human VPS34 enzyme assay (Adapta Universal Kinase Assay); conditions: at a 1.0 μM concentration; read-out: VPS34 Percent Inhibition
T5 construct: GST (with thrombin site, pDEST20-Thrombin) (N); host or cells: SF9 insect cells (baculovirus)
Source text: The catalytic subunits of PI3Ks are cloned into either pDEST8(p110 alpha) or pDEST10(p110beta, p110delta, and p110gamma) as N-terminal His tagged fusion proteins using the Gateway system (Invitrogen, catalog#11804-010 for pDEST8 and 11806-015 for pDEST10). The sequences are verified before recombinant protein expression using the Baculovirus Expression System with Gateway® Technology. The accession numbers for the subunits are as follows: • p110 alpha (GB:U79143) • p110beta (GB: S67334) • p110delta (GB: U86453) • p110gamma (GB: X83368) • The regulatory subunits of PI3Ks are cloned into pDEST8 as un-tagged protein using the Gateway system (Catalog#11804-010). The sequences are verified before recombinant protein expression using the Baculovirus Expression System with Gateway® Technology. The accession numbers for the subunits are as following: • p85 alpha (GB: BC030815) • p101(GB: AB028925) • VPS34 (accession number GB:BC033004) is cloned into pDEST20—Thombin as N-terminal GST tagged fusion proteins using the Gateway system (Invitrogen, catalog#11804-013). The sequences are verified before recombinant protein expression using the Baculovirus Expression System with Gateway® Technology.
For expression VPS34 was infected at 1MOI in SF9 cells and harvested 72 hours post infection.
For purification, VPS34 is purified by Glutathione Sepharose 4 Fast Flow (GE Healthcare #17-5132-03) followed by HiTrap Q (GE Healthcare #17-1153-01).
3) VPS34 is assayed using Adapta™ Universal Kinase Assay Kit (Invitrogen).
4) Human VPS34 enzyme assay method
100 nL compounds in DMSO are added to wells of a 384 well microtitre plate (Greiner 780076). At room temperature: 5 ul VPS34 reaction buffer (Invitrogen Assay Buffer Q (diluted 1 in 5 with nanopure water) plus 2 mM DTT and 2 mM MnCl2) containing ATP (20 uM, Promega) and 200 uM PI—PS substrate (Invitrogen PV5122) is added followed immediately by 5 ul VPS34 reaction buffer (as above) containing VPS34 (5 nM, Millennium Protein Sciences Group) and the mixture is incubated with shaking at room temperature for 1 hour. Then 5 ul VPS34 stop-detect mix (as per Invitrogen Adapta Assay kit (PV5009) instructions (contains kinase quench buffer, TR-FRET buffer, Adapta Eu anti-ADP antibody and Alexa Fluor 647 ADP tracer)) is added to quench the reaction. The plates are then incubated for 30 minutes at room temperature with shaking and then read on a BMG PheraStar Plus reader.
For the assay methods described above, test compound percent inhibition, at various concentrations, is calculated relative to control (DMSO and EDTA) treated samples. Compound concentration versus percent inhibition curves are fitted to generate IC50 values. One skilled in the art will appreciate that the values generated either as percentage inhibition at a single concentration or IC50 values are subject to experimental variation.

T5 sequence (Q8NEB9 whole entry): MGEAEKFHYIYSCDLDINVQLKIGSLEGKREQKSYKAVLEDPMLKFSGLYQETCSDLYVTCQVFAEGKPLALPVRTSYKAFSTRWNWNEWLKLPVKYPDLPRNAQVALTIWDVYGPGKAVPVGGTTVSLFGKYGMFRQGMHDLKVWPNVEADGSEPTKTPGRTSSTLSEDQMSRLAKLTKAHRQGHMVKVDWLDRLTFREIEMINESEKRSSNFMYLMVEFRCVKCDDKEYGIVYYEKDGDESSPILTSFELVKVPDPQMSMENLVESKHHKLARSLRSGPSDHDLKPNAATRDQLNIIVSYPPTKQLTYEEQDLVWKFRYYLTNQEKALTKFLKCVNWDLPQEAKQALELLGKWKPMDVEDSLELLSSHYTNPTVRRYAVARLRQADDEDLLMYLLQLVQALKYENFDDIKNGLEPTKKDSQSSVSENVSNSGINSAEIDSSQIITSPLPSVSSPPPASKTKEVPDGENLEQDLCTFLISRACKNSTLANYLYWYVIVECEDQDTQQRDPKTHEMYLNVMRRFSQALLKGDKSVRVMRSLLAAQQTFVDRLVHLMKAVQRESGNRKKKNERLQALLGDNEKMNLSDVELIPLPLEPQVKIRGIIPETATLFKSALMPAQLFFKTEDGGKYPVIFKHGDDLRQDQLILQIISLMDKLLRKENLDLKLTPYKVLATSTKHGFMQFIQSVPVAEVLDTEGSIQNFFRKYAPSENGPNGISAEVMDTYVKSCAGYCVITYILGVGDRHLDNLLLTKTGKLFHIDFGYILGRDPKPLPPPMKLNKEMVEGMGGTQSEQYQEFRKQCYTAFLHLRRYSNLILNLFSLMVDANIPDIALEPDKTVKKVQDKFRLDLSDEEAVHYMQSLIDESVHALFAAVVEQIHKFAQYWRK
T2 sequence (O00329 whole entry): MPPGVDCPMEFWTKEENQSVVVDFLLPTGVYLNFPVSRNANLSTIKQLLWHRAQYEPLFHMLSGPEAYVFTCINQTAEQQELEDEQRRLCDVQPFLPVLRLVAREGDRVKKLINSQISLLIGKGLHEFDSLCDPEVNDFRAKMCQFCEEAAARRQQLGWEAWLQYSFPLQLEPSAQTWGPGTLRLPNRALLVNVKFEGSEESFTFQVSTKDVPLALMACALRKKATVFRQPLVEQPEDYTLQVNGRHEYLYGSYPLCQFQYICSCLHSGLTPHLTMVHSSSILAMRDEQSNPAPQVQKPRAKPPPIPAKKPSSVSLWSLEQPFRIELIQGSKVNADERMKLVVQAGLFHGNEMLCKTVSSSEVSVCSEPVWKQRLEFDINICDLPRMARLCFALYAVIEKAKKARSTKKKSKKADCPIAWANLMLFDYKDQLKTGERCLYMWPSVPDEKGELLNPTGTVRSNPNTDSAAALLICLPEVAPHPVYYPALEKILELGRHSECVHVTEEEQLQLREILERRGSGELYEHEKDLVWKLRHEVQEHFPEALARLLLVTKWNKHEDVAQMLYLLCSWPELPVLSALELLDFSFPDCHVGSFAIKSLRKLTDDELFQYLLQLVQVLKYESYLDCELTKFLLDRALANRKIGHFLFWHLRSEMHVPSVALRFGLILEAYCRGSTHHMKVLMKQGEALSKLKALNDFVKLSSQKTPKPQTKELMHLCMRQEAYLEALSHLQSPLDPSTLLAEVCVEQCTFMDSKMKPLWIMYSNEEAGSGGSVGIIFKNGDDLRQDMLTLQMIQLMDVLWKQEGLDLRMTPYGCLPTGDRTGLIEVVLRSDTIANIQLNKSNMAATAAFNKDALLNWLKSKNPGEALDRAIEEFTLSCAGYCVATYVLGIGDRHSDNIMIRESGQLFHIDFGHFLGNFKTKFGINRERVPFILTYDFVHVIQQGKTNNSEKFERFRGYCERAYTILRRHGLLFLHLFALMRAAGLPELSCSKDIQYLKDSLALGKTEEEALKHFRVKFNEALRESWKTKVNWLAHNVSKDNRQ
T2 sequence (P27986 whole entry partner): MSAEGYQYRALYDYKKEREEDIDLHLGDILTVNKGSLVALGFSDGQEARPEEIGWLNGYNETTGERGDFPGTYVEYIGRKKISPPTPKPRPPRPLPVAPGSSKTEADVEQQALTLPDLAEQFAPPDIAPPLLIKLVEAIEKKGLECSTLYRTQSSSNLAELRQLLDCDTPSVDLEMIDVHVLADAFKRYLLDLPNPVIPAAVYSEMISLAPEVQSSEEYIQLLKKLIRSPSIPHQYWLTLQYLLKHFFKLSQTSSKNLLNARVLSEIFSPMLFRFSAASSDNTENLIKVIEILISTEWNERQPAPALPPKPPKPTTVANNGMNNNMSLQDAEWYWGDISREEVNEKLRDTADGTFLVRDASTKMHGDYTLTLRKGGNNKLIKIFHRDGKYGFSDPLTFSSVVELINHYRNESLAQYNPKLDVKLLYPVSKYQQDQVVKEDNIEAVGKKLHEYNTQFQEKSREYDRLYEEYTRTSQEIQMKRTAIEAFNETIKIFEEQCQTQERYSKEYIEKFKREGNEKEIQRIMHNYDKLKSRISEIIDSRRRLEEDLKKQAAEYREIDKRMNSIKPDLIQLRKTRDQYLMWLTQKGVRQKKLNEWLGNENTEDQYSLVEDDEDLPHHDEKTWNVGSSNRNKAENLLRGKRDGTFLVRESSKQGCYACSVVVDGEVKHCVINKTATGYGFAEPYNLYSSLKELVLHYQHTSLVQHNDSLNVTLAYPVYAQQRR
T3 sequence (P42338 whole entry): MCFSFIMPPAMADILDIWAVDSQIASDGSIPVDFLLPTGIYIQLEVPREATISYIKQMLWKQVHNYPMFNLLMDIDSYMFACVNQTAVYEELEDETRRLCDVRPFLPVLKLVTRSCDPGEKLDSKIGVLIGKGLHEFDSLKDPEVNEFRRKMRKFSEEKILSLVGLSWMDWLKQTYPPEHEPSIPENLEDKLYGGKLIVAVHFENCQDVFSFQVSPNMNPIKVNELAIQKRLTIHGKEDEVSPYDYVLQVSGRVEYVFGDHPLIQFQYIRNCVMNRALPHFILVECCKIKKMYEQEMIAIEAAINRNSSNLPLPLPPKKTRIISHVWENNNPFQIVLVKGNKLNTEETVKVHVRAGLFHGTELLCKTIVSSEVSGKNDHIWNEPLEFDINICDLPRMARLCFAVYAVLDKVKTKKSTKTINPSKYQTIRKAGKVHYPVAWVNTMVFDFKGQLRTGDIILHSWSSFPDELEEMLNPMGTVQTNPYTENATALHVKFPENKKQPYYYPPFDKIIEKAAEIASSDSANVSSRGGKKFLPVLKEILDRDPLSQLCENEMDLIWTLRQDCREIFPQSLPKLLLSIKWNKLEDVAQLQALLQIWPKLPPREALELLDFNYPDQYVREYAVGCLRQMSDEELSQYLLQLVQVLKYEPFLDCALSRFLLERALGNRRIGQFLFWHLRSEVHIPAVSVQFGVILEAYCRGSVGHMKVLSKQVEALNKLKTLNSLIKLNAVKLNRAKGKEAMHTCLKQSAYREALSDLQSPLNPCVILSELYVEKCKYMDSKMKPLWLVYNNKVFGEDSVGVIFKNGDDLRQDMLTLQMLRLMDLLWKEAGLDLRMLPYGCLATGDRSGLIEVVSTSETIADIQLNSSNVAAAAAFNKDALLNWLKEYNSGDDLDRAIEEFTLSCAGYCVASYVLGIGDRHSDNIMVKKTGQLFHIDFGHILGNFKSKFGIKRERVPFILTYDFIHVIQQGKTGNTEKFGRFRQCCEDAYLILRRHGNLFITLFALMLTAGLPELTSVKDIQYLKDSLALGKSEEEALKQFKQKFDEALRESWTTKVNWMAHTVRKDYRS
T3 sequence (P27986 whole entry partner): as the sequence (P27986 whole entry partner) above
T1 sequence (P42336 whole entry): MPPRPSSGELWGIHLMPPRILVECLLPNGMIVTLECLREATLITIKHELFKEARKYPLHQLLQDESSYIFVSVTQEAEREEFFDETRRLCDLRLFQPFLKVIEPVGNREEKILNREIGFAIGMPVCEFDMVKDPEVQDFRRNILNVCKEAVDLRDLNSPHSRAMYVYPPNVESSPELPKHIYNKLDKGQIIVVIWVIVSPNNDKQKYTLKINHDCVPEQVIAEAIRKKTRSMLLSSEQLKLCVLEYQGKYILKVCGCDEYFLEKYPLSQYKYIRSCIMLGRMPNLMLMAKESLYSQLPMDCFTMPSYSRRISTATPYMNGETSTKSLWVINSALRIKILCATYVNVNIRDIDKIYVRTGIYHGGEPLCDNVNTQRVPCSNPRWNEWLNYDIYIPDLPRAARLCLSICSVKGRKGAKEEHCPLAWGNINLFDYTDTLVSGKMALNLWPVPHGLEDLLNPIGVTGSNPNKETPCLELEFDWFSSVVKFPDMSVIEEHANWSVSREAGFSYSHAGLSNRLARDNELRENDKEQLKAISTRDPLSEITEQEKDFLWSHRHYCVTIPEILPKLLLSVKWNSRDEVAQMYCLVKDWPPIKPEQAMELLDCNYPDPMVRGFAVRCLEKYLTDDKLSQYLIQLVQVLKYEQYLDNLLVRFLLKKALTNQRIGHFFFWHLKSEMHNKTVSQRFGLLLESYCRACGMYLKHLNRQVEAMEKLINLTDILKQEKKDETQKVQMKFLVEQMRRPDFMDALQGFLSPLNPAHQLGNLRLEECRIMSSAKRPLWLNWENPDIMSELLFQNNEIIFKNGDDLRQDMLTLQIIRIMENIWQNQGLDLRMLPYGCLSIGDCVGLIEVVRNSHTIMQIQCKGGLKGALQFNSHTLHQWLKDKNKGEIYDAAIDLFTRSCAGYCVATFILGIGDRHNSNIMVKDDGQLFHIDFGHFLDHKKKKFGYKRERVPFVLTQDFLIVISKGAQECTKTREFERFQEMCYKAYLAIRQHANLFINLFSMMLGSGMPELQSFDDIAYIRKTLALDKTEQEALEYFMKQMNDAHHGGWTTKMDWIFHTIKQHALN
T1 sequence (P27986 whole entry partner): as the sequence (P27986 whole entry partner) above

N#Cc1c(N2CCOCC2)sc(C(=O)O)c1Cc1c(F)cc(Cl)cc1F [Compound 126]
inhibition at 1.1 µM [1]: 42% | inhibition at 1 µM [2]: 100% | inhibition at 1.1 µM [3]: 103% | inhibition at 1 µM [4]: 37.6% | inhibition at 1 µM [5]: 44%

N#Cc1c(N2CCOCC2)sc(C(=O)O)c1C(N)c1ccc(Cl)cc1 (centres unmarked) [Compound 113, 3-[amino(4-chlorophenyl)methyl]-4-cyano-5-(morpholin-4-yl)thiophene-2-carboxylic acid hydrochloride]
inhibition at 1.1 µM [1]: 25% | inhibition at 1 µM [2]: 78.8% | inhibition at 1.1 µM [3]: 100% | inhibition at 1 µM [4]: 32.5% | inhibition at 1 µM [5]: 18.1%

N#Cc1c(N2CCOCC2)sc(C(=O)O)c1Cc1ccc(Br)cc1 [Compound 106]
inhibition at 1.1 µM [1]: 58% | inhibition at 1 µM [2]: 88.8% | inhibition at 1.1 µM [3]: 103% | inhibition at 1 µM [4]: 51.8% | inhibition at 1 µM [5]: 34.4%

COc1cc(Cc2c(C(=O)O)sc(N3CCOCC3)c2C#N)ccc1Cl [Compound 122]
inhibition at 1.1 µM [1]: 49% | inhibition at 1 µM [2]: 96.2% | inhibition at 1.1 µM [3]: 106% | inhibition at 1 µM [4]: 49.6% | inhibition at 1 µM [5]: 55.2%

N#Cc1ccc(Cc2nc(N3CCOCC3)sc2C(=O)O)cc1 [Compound 93]
inhibition at 1.1 µM [1]: 9% | inhibition at 1 µM [2]: 46% | inhibition at 1.1 µM [3]: 80% | inhibition at 1 µM [4]: 9.5% | inhibition at 1 µM [5]: 19.2%

N#Cc1c(N2CCOCC2)sc(C(=O)O)c1Cc1ccc2ccccc2c1 [Compound 112]
inhibition at 1.1 µM [1]: 95% | inhibition at 1 µM [2]: 114% | inhibition at 1.1 µM [3]: 110% | inhibition at 1 µM [4]: 69% | inhibition at 1 µM [5]: 37.8%

N#Cc1ccc(Cc2c(C(=O)O)sc(N3CCOCC3)c2C#N)cc1 [Compound 115]
inhibition at 1.1 µM [1]: 45% | inhibition at 1 µM [2]: 63% | inhibition at 1.1 µM [3]: 97% | inhibition at 1 µM [4]: 12% | inhibition at 1 µM [5]: 39.7%

N#Cc1c(N2CCOCC2)sc(C(=O)O)c1Cc1ccc(Cl)cc1F [Compound 123]
inhibition at 1.1 µM [1]: 64% | inhibition at 1 µM [2]: 96.8% | inhibition at 1.1 µM [3]: 105% | inhibition at 1 µM [4]: 36.6% | inhibition at 1 µM [5]: 45.1%

N#Cc1c(N2CCOCC2)sc(C(=O)O)c1Cc1ccc(Cl)cc1 [Compound 116]
inhibition at 1.1 µM [1]: 46% | inhibition at 1 µM [2]: 83% | inhibition at 1.1 µM [3]: 98% | inhibition at 1 µM [4]: 36.7% | inhibition at 1 µM [5]: 54.2%

N#Cc1c(N2CCOCC2)sc(C(=O)O)c1Cc1ccc(F)cc1 [Compound 97]
inhibition at 1.1 µM [1]: 53% | inhibition at 1 µM [2]: 89.8% | inhibition at 1.1 µM [3]: 101% | inhibition at 1 µM [4]: 17.8% | inhibition at 1 µM [5]: 45%

N#Cc1c(N2CCOCC2)sc(C(=O)O)c1Cc1ccc(Cl)cc1Cl [Compound 96]
inhibition at 1.1 µM [1]: 58% | inhibition at 1 µM [2]: 96% | inhibition at 1.1 µM [3]: 109% | inhibition at 1 µM [4]: 36.2% | inhibition at 1 µM [5]: 47.8%

N#Cc1c(N2CCOCC2)sc(C(=O)O)c1Cc1ccc(Cl)c(Cl)c1 [Compound 124]
inhibition at 1.1 µM [1]: 79% | inhibition at 1 µM [2]: 112% | inhibition at 1.1 µM [3]: 109% | inhibition at 1 µM [4]: 74.2% | inhibition at 1 µM [5]: 78.8%

N#Cc1c(C2=CCOCC2)sc(C(=O)O)c1Cc1ccc(Cl)cc1 [Compound 95, 3-(4-chlorobenzyl)-4-cyano-5-(3,6-dihydro-2H-pyran-4-yl)thiophene-2-carboxylic acid]
inhibition at 1.1 µM [1]: 68% | inhibition at 1 µM [2]: 86.1% | inhibition at 1.1 µM [3]: 101% | inhibition at 1 µM [4]: 23.9% | inhibition at 1 µM [5]: 167%
